Assay results from patent publication US20250236600A1, “SUBSTITUTED VINYL PIPERAZINE-PIPERIDINE UREA DERIVATIVES AS ANTICANCER AGENTS” (UNIVERSITA' DEGLI STUDI DI PAVIA, priority 2021, published 2025).
Entries after “also recorded” stand apart in the source; their conditions may differ.

Columns and labels:
[1] = tested on: dorsal root ganglia (DRG); assay: NGF-induced neurite outgrowth of DRG organotypic cultures (neurotoxic effect); format: cell-based, embryonic Sprague-Dawley rats; details: for neurotoxicity in vitro (result in words): concentrations = IC20, IC50, IC80 of U87-MG SRB assay, neurotoxic if neurites length less than 50% of control
Experimental: Evaluation of NGF-induced neurite outgrowths was performed on dorsal root ganglia (DRG) of 15-day-old embryonic Sprague-Dawley rats. Briefly, DRG were aseptically collected and plated onto collagen coated dishes. DRG were cultured in AN2 medium supplemented with 5 ng/mL NGF in a 5% CO2 humidified incubator at 37° C. DRG were treated after 2 hours with increasing concentrations of compounds, corresponding to IC20, IC50 and IC80 in U87-MG SRB assay. Micrographs of DRG were taken after 24 and 72 hours of treatment and neurite elongation was manually measured using ImageJ software.
(§1) Statistical analysis of the data obtained was performed using the ANOVA and the Dunnet's post-hoc test. Values of p<0.01 (**) were considered statistically significant.
The results, expressed as the mean±standard deviation, represents the percentage of neurite outgrowth compared to untreated control (arbitrarily set to 100%).
According to this method of in vitro neurotoxicity evaluation, a compound can be considered neurotoxic if neurites length is less than 50% of the control.

[2] = tested on: U87-MG cells; assay: Sulforhodamine B (SRB) cell viability assay, U87-MG; format: cell-based; details: Homo sapiens, U-87 MG, 24 hours
Text: (§2) Sulforhodamine B (SRB) assay was used to evaluate RPMI 8226 cell viability in vitro. It is a widely used method to evaluate cell viability and cytotoxicity. This method relies on the property of SRB, which binds stoichiometrically to proteins under mild acidic conditions. Thus, the amount of bound dye can be used as measure of cell proliferation.
(§3) Human RPMI 8226 and U87-MG cells were growth in culture medium (DMEM low glucose for U87-MG and RPMI 1640 for RPMI 8226), supplemented with 10% fetal bovine serum, 1% L-glutamine, 1% penicillin and streptomycin. Cells were maintained in a humidified incubator at 37° C. and 5% CO2. For SRB assay, 1×10^4/well cells were seeded in a 96-well plate and were treated with increasing concentrations of the compounds (1-20 μM). After 24 hours, cells were fixed with 10% trichloroacetic acid and were stained with SRB solution. Excess of dye was removed by washing with 1% acetic acid. The protein-bound dye was then dissolved in 10 mM Tris base solution and absorbance was measured at 510 nm using a microplate reader.
(§4) Statistical analysis of the data obtained was performed using the one-way analysis of variance (ANOVA) and the Dunnet's post-hoc test. Values of p<0.01 (**) were considered statistically significant.
(§5) The results, expressed as the mean±standard deviation, represents the percentage of viable cells compared to untreated control (arbitrarily set to 100%).
(§6) FIG. 7 represents the results obtained in U87-MG cells after treatment with compound 26 (A), 27 (B), 28 (C) 29 (D) and 30 (E). FIG. 8 represents the results obtained for RPMI 8226 cells after treatment with compound 26 (A), 27 (B), 28 (C) 29 (D) and 30 (E). Cells were treated for 24 hours with increasing concentrations of compounds (1, 5, 10 and 20 μM).

[3] = tested on: U87-MG cells; assay: Boyden chamber cell invasion, U87-MG; format: cell-based, Human; details: treated at IC20 of SRB assay, 16 hours, FIG. 10A
Experimental: (§7) Cell invasion is evaluated by Boyden Chamber. In Boyden chamber, cells attracted by a chemoattractant pass through a porous membrane coated with gelatine. This in vitro assay is indicative of the ability of cells to cross an extracellular substrate and invade surrounding tissues. U87-MG and RPMI cells were resuspended in FBS-free medium, with or without treatments. IC20 obtained in SRB assay was used as compound treatment concentration, in order to not affect the invasion results with a too high mortality. 5×10^3 cells/well were seeded in the upper compartment of the Boyden chamber. In the lower compartment a complete medium supplemented with 10% FBS was placed. FBS was used as chemoattractant. Between the two compartments, a gelatine coated polycarbonate membrane with 8 μm pores was placed. The Boyden chamber, thus set up, was placed at 37° C. in an incubator for 24 hours (RPMI 8226 cells) or for 16 hours (U87-MG cells). After incubation membrane was removed and cells on the lower surface of the membrane were fixed and stained with Diffquick staining kit. Micrographs were taken and cells were counted using ImageJ software.
as §1
(§8) The results, expressed as the mean±standard deviation, represents the percentage of cells that are able to pass through the membrane compared to untreated control (arbitrarily set to 100%).

[4] = tested on: RPMI 8226 cells; assay: Sulforhodamine B (SRB) cell viability assay, RPMI 8226; format: cell-based, Human; details: RPMI 8226, SRB assay, 24 hours; for IC20 / IC50: Homo sapiens
Text: as §2, §3, §4, §5, §6

[5] = tested on: Proteasome; assay: Proteasome activity (7-Amido-4-Methylcoumarin fluorescent probe) in RPMI 8226 cells; format: cell-based, Human; details: RPMI 8226, treated at IC50 of SRB assay, 24 hours
Experimental: (§9) Proteasome is a cellular complex responsible for the degradation of a high amount of regulatory, misfolded or damaged intracellular proteins. It is considered an important target for anticancer therapy. Proteasome activity was evaluated by 7-Amido-4-Methylcoumarin fluorescent probe. U87-MG and RPMI 8226 cells were cultured in 6 well-plates at 25×10^4 cells/well density and were treated with IC50 concentration of each compound (calculated in SRB assay). After 24 hours of treatment, cells were collected and total protein extracts were obtained. Lysis buffer (5 mM Hepes pH 7.5, 150 mM NaCl, 10% glycerol, 1% Triton X100, 1.5 mM MgCl2, 5 mM EGTA) was […] with proteases and phosphatases inhibitors. Protein content was quantified using Bradford method. 40 μg of proteins were mixed with proteasome buffer (250 mM Hepes pH 7.5, 5 mM EDTA, 0.5% NP-40, 0.01% SDS) and 2.2 mM 7-Amido-4-Methylcoumarin. After 2 hours of incubation at 37° C., fluorescence was quantified in a microplate reader (excitation 380 nm, emission 460 nm). Statistical analysis of the data obtained was performed using the ANOVA and the Dunnet's post-hoc test. Values of p<0.01 (**) were considered statistically significant. The results, expressed as the mean±standard deviation, represents the percentage of proteasome activity compared to untreated control (arbitrarily set to 100%).

[6] = tested on: U87-MG cells; assay: Scratch wound healing cell migration assay; format: cell-based, Human; details: 1-10 μM, 24 hours, FIG. 9
Experimental: FIG. 9 represent cell migration assays on U87-MG cells.
The scratch wound healing assay evaluates the ability of cells to close a manually created gap on the cell monolayer in vitro. This assay is indicative of cell motility and the ability of cells to propagate locally.
Cells were seeded in 6-well plates and were incubated until reaching confluence. At this point, using a plastic tip, a scratch was manually created on the surface of the cell monolayer. Culture medium was then replaced with fresh medium with or without treatments. Cells were treated with increasing concentrations of the compounds (1-10 μM). Micrographs were taken immediately after the scratch (t0) and 24 hours later (t24). The area of the scratch was measured using ImageJ software and cell migration area was calculated by subtracting the t24 area from the t0 area.
as §4
The results, expressed as the mean±standard deviation, represents the percentage of the cell migration area compared to untreated control (arbitrarily set to 100%).

[7] = tested on: RPMI 8226 cells; assay: Boyden chamber cell invasion, RPMI 8226; format: cell-based, Human; details: RPMI 8226, treated at IC20 of SRB assay, 24 hours; for cell invasion compared to untreated control: control = 100%; for cell invasion (result in words): FIG. 10B
Experimental: as §7, §1, §8

[8] = tested on: Proteasome; assay: Proteasome activity (7-Amido-4-Methylcoumarin fluorescent probe) in U87-MG cells; format: cell-based, Human; details: treated at IC50 of SRB assay, 24 hours; for proteasome inhibition: FIG. 11A
Experimental: as §9

| SMILES | concentration up to which not neurotoxic ([1]; rat DRG neurite outgrowth, 24 and 72 hours) | neurotoxicity in vitro (result in words) ([1]; rat DRG, 24 and 72 hours) | IC50 [2] [µM] | cell invasion (result in words) [3] | IC20 [4] [µM] | IC50 [4] [µM] | IC80 [4] [µM] | proteasome inhibition (result in words) [5] | cell migration (result in words) [6] | cell invasion compared to untreated control [7] [%] | proteasome inhibition (result in words) [8] | proteasome inhibition [8] [%] | cell invasion (result in words) [7] | neurite length, percentage of untreated control ([1]; rat DRG, all evaluated concentrations) |
| --- | --- | --- | --- | --- | --- | --- | --- | --- | --- | --- | --- | --- | --- | --- |
| C/C(=C\CN1CCN(C(=O)NC2CCCC2)CC1)c1ccc2ccccc2c1 [Compound 26, (E)-N-cyclopentyl-4-(3-(naphthalen-2-yl)but-2-en-1-yl)piperazine-1-carboxamide] | up to 13 μM | at the highest concentration evaluated it was found to be neurotoxic | 13.3 ± 0.6 | weak effect against cell invasion | 22.6 ± 2 | 7.9 ± 0.7 | 3.9 ± 1.2 | able of inhibiting the proteasome activity | weak ability to reduce migration | ~80 | able of inhibiting the proteasome activity | ~50 |  |  |
| C/C(=C\CN1CCN(C(=O)NC2CCCCC2)CC1)c1ccc2ccccc2c1 [Compound 27, (E)-N-cyclohexyl-4-(3-(naphthalen-2-yl)but-2-en-1-yl)piperazine-1-carboxamide] |  | not neurotoxic at all evaluated concentrations and time points | 10 ± 0.5 | weak effect against cell invasion | 9.5 ± 3.7 | 6.4 ± 0.3 | 4.2 ± 2.1 | not an inhibitory effect | strong cell migration inhibitors | ~80 |  |  |  |  |
| C/C(=C\CN1CCN(C(=O)Nc2ccc(C)cc2)CC1)c1ccc2ccccc2c1 [Compound 28, (E)-4-(3-(naphthalen-2-yl)but-2-en-1-yl)-N-(p-tolyl)piperazine-1-carboxamide] |  | not neurotoxic at all evaluated concentrations and time points | 10.8 ± 1.8 | very effective in reducing cell invasion; also recorded: significantly able of inhibiting the invasion | 7.1 ± 0.6 | 3.7 ± 0.6 | 1.9 ± 0.5 | able of inhibiting the proteasome activity | strong cell migration inhibitors |  | able of inhibiting the proteasome activity |  | statistically significant, however lower than the one obtained in U87-MG cells |  |
| COc1ccc2cc(/C(C)=C/CN3CCN(C(=O)Nc4ccc(C(F)(F)F)cc4)CC3)ccc2c1 [Compound 29, (E)-4-(3-(6-methoxynaphthalen-2-yl)but-2-en-1-yl)-N-(4-(trifluoromethyl)phenyl)piperazine-1-carboxamide] |  | not neurotoxic at all evaluated concentrations and time points | 7.1 ± 0.1 | reduced cell invasion, but it was less effective than compound 28; also recorded: significantly able of inhibiting the invasion | 8.1 ± 0.3 | 4.8 ± 0.1 | 2.9 ± 0.1 | only a weak inhibitory effect; also recorded: only weak inhibitory activity | strong cell migration inhibitors |  | only a weak inhibitory effect; also recorded: only weak inhibitory activity | ~50 | statistically significant, however lower than the one obtained in U87-MG cells |  |
| COc1ccc2cc(/C(C)=C/CN3CCN(C(=O)Nc4c(F)cccc4F)CC3)ccc2c1 [Compound 30, (E)-N-(2,6-difluorophenyl)-4-(3-(6-methoxynaphthalen-2-yl)but-2-en-1-yl)piperazine-1-carboxamide] |  | not neurotoxic in vitro; also recorded: not neurotoxic at all evaluated concentrations | 12.2 ± 0.3 | not effective | 7.3 ± 0.1 | 4.5 ± 0.2 | 2.9 ± 0.1 | only a weak inhibitory effect | strong cell migration inhibitors | ~80 |  |  |  | higher than 50% |
